Measured values from ChEMBL document CHEMBL1201861, “Genomics of Drug Sensitity in Cancer screening data, Wellcome Trust Sanger Institute”.

Legend:
Test in all cases: cells
Assay type in all cases: functional, cell-based
Settings in all cases: Homo sapiens
COLO-800 = test system: COLO-800;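 note: growth inhibition of COLO-800 cells, read out with a cell viability assay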
Description: SANGER: Inhibition of human COLO-800 cell growth in a cell viability assay.

COLO-824 = test system: COLO-824
Description: SANGER: Inhibition of human COLO-824 cell growth in a cell viability assay.

DEL = test system: DEL;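 note: growth inhibition of the human DEL cell line, read out with a cell viability assay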
Description: SANGER: Inhibition of human DEL cell growth in a cell viability assay.

DJM-1 = test system: DJM-1;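 note: growth inhibition of human DJM-1 cells, read out by a cell viability assay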
Description: SANGER: Inhibition of human DJM-1 cell growth in a cell viability assay.

DMS-114 = test system: DMS-114
DSH1 = test system: DSH1;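 note: growth inhibition of human DSH1 cells, measured with a cell viability readout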
Description: SANGER: Inhibition of human DSH1 cell growth in a cell viability assay.

EKVX = test system: EKVX;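 note: growth inhibition of human EKVX cells, read out with a cell viability assay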
Description: SANGER: Inhibition of human EKVX cell growth in a cell viability assay.

ES3 = test system: ES3;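 note: growth inhibition of ES3 cells, read out with a cell viability assay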
Description: SANGER: Inhibition of human ES3 cell growth in a cell viability assay.

ES4 = test system: ES4;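 note: growth inhibition of human ES4 cells, read out by a cell viability assay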
Description: SANGER: Inhibition of human ES4 cell growth in a cell viability assay.

EW-11 = test system: EW-11;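 note: growth inhibition of human EW-11 cells, measured with a cell viability assay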
Description: SANGER: Inhibition of human EW-11 cell growth in a cell viability assay.

EW-13 = test system: EW-13;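 note: growth inhibition of EW-13 cells, read out with a cell viability assay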
Description: SANGER: Inhibition of human EW-13 cell growth in a cell viability assay.

GT3TKB = test system: GT3TKB;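 note: growth inhibition of the cell line, read out with a cell viability assay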
Description: SANGER: Inhibition of human GT3TKB cell growth in a cell viability assay.

HAL-01 = test system: HAL-01;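 note: growth inhibition of human HAL-01 cells, read out with a cell viability assay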
Description: SANGER: Inhibition of human HAL-01 cell growth in a cell viability assay.

HCC1187 = test system: HCC1187;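 note: growth inhibition of HCC1187 cells, read out with a cell viability assay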
Description: SANGER: Inhibition of human HCC1187 cell growth in a cell viability assay.

HD-MY-Z = test system: HD-MY-Z;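 note: growth inhibition of HD-MY-Z cells, read out with a cell viability assay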
Description: SANGER: Inhibition of human HD-MY-Z cell growth in a cell viability assay.

HEL = test system: HEL;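 note: growth inhibition of HEL cells, read out with a cell viability assay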
Description: SANGER: Inhibition of human HEL cell growth in a cell viability assay.

HT = test system: HT
Description: SANGER: Inhibition of human HT cell growth in a cell viability assay.

JVM-3 = test system: JVM-3;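 note: growth inhibition of human JVM-3 cells, read out with a cell viability assay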
Description: SANGER: Inhibition of human JVM-3 cell growth in a cell viability assay.

K562 = test system: K562
Description: SANGER: Inhibition of human K-562 cell growth in a cell viability assay.

KALS-1 = test system: KALS-1;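 note: growth inhibition of KALS-1 cells, determined with a cell viability assay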
Description: SANGER: Inhibition of human KALS-1 cell growth in a cell viability assay.

KARPAS-45 = test system: KARPAS-45;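 note: inhibition of cell line growth, read out through a viability assay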
Description: SANGER: Inhibition of human KARPAS-45 cell growth in a cell viability assay.

KINGS-1 = test system: KINGS-1;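 note: cell viability assay measuring suppression of KINGS-1 cell growth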
Description: SANGER: Inhibition of human KINGS-1 cell growth in a cell viability assay.

KP-N-YS = test system: KP-N-YS;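 note: cell viability assay measuring inhibition of cell line growth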
Description: SANGER: Inhibition of human KP-N-YS cell growth in a cell viability assay.

L-363 = test system: L-363
Description: SANGER: Inhibition of human L-363 cell growth in a cell viability assay.

L-428 = test system: L-428
Description: SANGER: Inhibition of human L-428 cell growth in a cell viability assay.

LAMA-84 = test system: LAMA-84;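 note: growth inhibition of LAMA-84 cells, read out with a cell viability assay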
Description: SANGER: Inhibition of human LAMA-84 cell growth in a cell viability assay.

LB2518-MEL = test system: LB2518-MEL;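 note: growth inhibition of human LB2518-MEL cells, measured with a cell viability assay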
Description: SANGER: Inhibition of human LB2518-MEL cell growth in a cell viability assay.

LNCaP-Clone-FGC = test system: LNCaP-Clone-FGC
Description: SANGER: Inhibition of human LNCaP-Clone-FGC cell growth in a cell viability assay.

MFM-223 = test system: MFM-223
Description: SANGER: Inhibition of human MFM-223 cell growth in a cell viability assay.

MLMA = test system: MLMA;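 note: growth inhibition of MLMA cells (human), determined through a cell viability readout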
Description: SANGER: Inhibition of human MLMA cell growth in a cell viability assay.

MOLT-4 = test system: MOLT-4;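 note: growth inhibition of MOLT-4 cells, determined with a cell viability readout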
Description: SANGER: Inhibition of human MOLT-4 cell growth in a cell viability assay.

MZ2-MEL = test system: MZ2-MEL;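 note: growth inhibition of MZ2-MEL cells read out with a cell viability assay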
Description: SANGER: Inhibition of human MZ2-MEL cell growth in a cell viability assay.

NB10 = test system: NB10;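 note: growth inhibition of NB10 cells, read out by a cell viability assay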
Description: SANGER: Inhibition of human NB10 cell growth in a cell viability assay.

NCI-H1092 = test system: NCI-H1092;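 note: cell growth inhibition measured with a cell viability assay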
Description: SANGER: Inhibition of human NCI-H1092 cell growth in a cell viability assay.

NCI-H1299 = test system: NCI-H1299;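 note: growth inhibition of human NCI-H1299 cells, read out by a cell viability assay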
Description: SANGER: Inhibition of human NCI-H1299 cell growth in a cell viability assay.

NCI-H1304 = test system: NCI-H1304;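 note: growth inhibition of the cancer cell line, measured in a cell viability assay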
Description: SANGER: Inhibition of human NCI-H1304 cell growth in a cell viability assay.

NCI-H446 = test system: NCI-H446;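 note: growth inhibition of NCI-H446 cells determined by a cell viability assay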
Description: SANGER: Inhibition of human NCI-H446 cell growth in a cell viability assay.

NCI-H510A = test system: NCI-H510A;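 note: growth inhibition of NCI-H510A cells, read out with a cell viability assay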
Description: SANGER: Inhibition of human NCI-H510A cell growth in a cell viability assay.

NCI-H747 = test system: NCI-H747;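 note: growth inhibition of human NCI-H747 cells, read out by a cell viability assay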
Description: SANGER: Inhibition of human NCI-H747 cell growth in a cell viability assay.

NCI-H82 = test system: NCI-H82;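 note: growth inhibition of NCI-H82 cells, measured with a cell viability readout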
Description: SANGER: Inhibition of human NCI-H82 cell growth in a cell viability assay.

NOS-1 = test system: NOS-1;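 note: growth inhibition of the human NOS-1 cell line, read out with a cell viability assay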
Description: SANGER: Inhibition of human NOS-1 cell growth in a cell viability assay.

OCI-AML2 = test system: OCI-AML2;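 note: growth inhibition of OCI-AML2 cells, read out with a cell viability assay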
Description: SANGER: Inhibition of human OCI-AML2 cell growth in a cell viability assay.

ONS-76 = test system: ONS-76;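 note: growth inhibition of human ONS-76 cells, read out with a cell viability assay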
Description: SANGER: Inhibition of human ONS-76 cell growth in a cell viability assay.

OVCAR-4 = test system: OVCAR-4;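 note: growth inhibition of human OVCAR-4 cells, measured with a cell viability assay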
Description: SANGER: Inhibition of human OVCAR-4 cell growth in a cell viability assay.

RCC10RGB = test system: RCC10RGB;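 note: growth inhibition of human RCC10RGB cells, read out by a cell viability assay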
Description: SANGER: Inhibition of human RCC10RGB cell growth in a cell viability assay.

RKO = test system: RKO;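 note: growth inhibition of human RKO cells, read out with a cell viability assay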
Description: SANGER: Inhibition of human RKO cell growth in a cell viability assay.

SK-MEL-1 = test system: SK-MEL-1;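 note: growth inhibition of human SK-MEL-1 cells, read out by a cell viability assay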
Description: SANGER: Inhibition of human SK-MEL-1 cell growth in a cell viability assay.

SK-N-DZ = test system: SK-N-DZ;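 note: growth inhibition of the cancer cell line, read out through a viability assay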
Description: SANGER: Inhibition of human SK-N-DZ cell growth in a cell viability assay.

SK-NEP-1 = test system: SK-NEP-1;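 note: growth inhibition of human SK-NEP-1 cells, read out by a cell viability assay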
Description: SANGER: Inhibition of human SK-NEP-1 cell growth in a cell viability assay.

SK-UT-1 = test system: SK-UT-1;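 note: growth inhibition of SK-UT-1 cells, measured by a cell viability assay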
Description: SANGER: Inhibition of human SK-UT-1 cell growth in a cell viability assay.

SW982 = test system: SW982;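 note: growth inhibition of SW982 cells, read out with a cell viability assay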
Description: SANGER: Inhibition of human SW982 cell growth in a cell viability assay.

A101D = test system: A101D;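 note: growth inhibition of the cell line, measured with a viability assay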
Description: SANGER: Inhibition of human A101D cell growth in a cell viability assay.

A388 = test system: A388;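 note: growth inhibition of human A388 cells, read out with a cell viability assay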
Description: SANGER: Inhibition of human A388 cell growth in a cell viability assay.

BB49-HNC = test system: BB49-HNC;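 note: cell viability assay read-out, reported as inhibition of BB49-HNC cell growth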
Description: SANGER: Inhibition of human BB49-HNC cell growth in a cell viability assay.

TE-10 = test system: TE-10;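 note: growth inhibition of TE-10 cells, measured by a cell viability assay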
Description: SANGER: Inhibition of human TE-10 cell growth in a cell viability assay.

TE-5 = test system: TE-5;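 note: inhibition of cell growth, read out by a cell viability assay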
Description: SANGER: Inhibition of human TE-5 cell growth in a cell viability assay.

TE-6 = test system: TE-6;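 note: growth inhibition of TE-6 cells, read out with a cell viability assay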
Description: SANGER: Inhibition of human TE-6 cell growth in a cell viability assay.

TE-9 = test system: TE-9;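 note: cell growth inhibition, measured with a cell viability readout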
Description: SANGER: Inhibition of human TE-9 cell growth in a cell viability assay.

TGBC1TKB = test system: TGBC1TKB
Description: SANGER: Inhibition of human TGBC1TKB cell growth in a cell viability assay.

U-266 = test system: U-266
Description: SANGER: Inhibition of human U-266 cell growth in a cell viability assay.

UACC-257 = test system: UACC-257
Description: SANGER: Inhibition of human UACC-257 cell growth in a cell viability assay.

no-10 = test system: no-10
Description: SANGER: Inhibition of human no-10 cell growth in a cell viability assay.

CCRF-CEM = test system: CCRF-CEM
Description: SANGER: Inhibition of human CCRF-CEM cell growth in a cell viability assay.

CGTH-W-1 = test system: CGTH-W-1
Description: SANGER: Inhibition of human CGTH-W-1 cell growth in a cell viability assay.

COLO-320-HSR = test system: COLO-320-HSR
Description: SANGER: Inhibition of human COLO-320-HSR cell growth in a cell viability assay.

HH = test system: HH
Description: SANGER: Inhibition of human HH cell growth in a cell viability assay.

C/C(O)=C(\C#N)C(=O)Nc1cc(Br)ccc1Br
IC50 (COLO-800): > 16 µM
IC50 (COLO-824): > 16 µM
IC50 (DEL): > 16 µM
IC50 (DJM-1): > 16 µM
IC50 (DMS-114): > 16 µM
IC50 (DSH1): > 16 µM
IC50 (EKVX): > 16 µM
IC50 (ES3): > 16 µM
IC50 (ES4): > 16 µM
IC50 (EW-11): > 16 µM
IC50 (EW-13): > 16 µM
IC50 (GT3TKB): > 16 µM
IC50 (HAL-01): > 16 µM
IC50 (HCC1187): > 16 µM
IC50 (HD-MY-Z): > 16 µM
IC50 (HEL): > 16 µM
IC50 (HT): > 16 µM
IC50 (JVM-3): > 16 µM
IC50 (K562): > 16 µM
IC50 (KALS-1): > 16 µM
IC50 (KARPAS-45): > 16 µM
IC50 (KINGS-1): > 16 µM
IC50 (KP-N-YS): > 16 µM
IC50 (L-363): > 16 µM
IC50 (L-428): > 16 µM
IC50 (LAMA-84): > 16 µM
IC50 (LB2518-MEL): > 16 µM
IC50 (LNCaP-Clone-FGC): > 16 µM
IC50 (MFM-223): > 16 µM
IC50 (MLMA): > 16 µM
IC50 (MOLT-4): > 16 µM
IC50 (MZ2-MEL): > 16 µM
IC50 (NB10): > 16 µM
IC50 (NCI-H1092): > 16 µM
IC50 (NCI-H1299): > 16 µM
IC50 (NCI-H1304): > 16 µM
IC50 (NCI-H446): > 16 µM
IC50 (NCI-H510A): > 16 µM
IC50 (NCI-H747): > 16 µM
IC50 (NCI-H82): > 16 µM
IC50 (NOS-1): > 16 µM
IC50 (OCI-AML2): > 16 µM
IC50 (ONS-76): > 16 µM
IC50 (OVCAR-4): > 16 µM
IC50 (RCC10RGB): > 16 µM
IC50 (RKO): > 16 µM
IC50 (SK-MEL-1): > 16 µM
IC50 (SK-N-DZ): > 16 µM
IC50 (SK-NEP-1): > 16 µM
IC50 (SK-UT-1): > 16 µM
IC50 (SW982): > 16 µM
IC50 (A101D): > 16 µM
IC50 (A388): > 16 µM
IC50 (BB49-HNC): > 16 µM
IC50 (TE-10): > 16 µM
IC50 (TE-5): > 16 µM
IC50 (TE-6): > 16 µM
IC50 (TE-9): > 16 µM
IC50 (TGBC1TKB): > 16 µM
IC50 (U-266): > 16 µM
IC50 (UACC-257): > 16 µM
IC50 (no-10): > 16 µM
IC50 (CCRF-CEM): > 16 µM
IC50 (CGTH-W-1): > 16 µM
IC50 (COLO-320-HSR): > 16 µM

NC(=O)c1ncn([C@@H]2O[C@H](COP(=O)(O)O)[C@@H](O)[C@H]2O)c1N
IC50 (COLO-800): > 2000 µM
IC50 (COLO-824): 1130 µM
IC50 (DEL): 232 µM
IC50 (DJM-1): > 2000 µM
IC50 (DMS-114): 1580 µM
IC50 (DSH1): > 2000 µM
IC50 (EKVX): > 2000 µM
IC50 (ES3): 1100 µM
IC50 (ES4): 1770 µM
IC50 (EW-11): 1090 µM
IC50 (EW-13): > 2000 µM
IC50 (GT3TKB): > 2000 µM
IC50 (HAL-01): 434 µM
IC50 (HCC1187): 1140 µM
IC50 (HD-MY-Z): 1950 µM
IC50 (HEL): 804 µM
IC50 (HH): 232 µM
IC50 (HT): 995 µM
IC50 (JVM-3): > 2000 µM
IC50 (K562): > 2000 µM
IC50 (KALS-1): 1160 µM
IC50 (KARPAS-45): 1410 µM
IC50 (KINGS-1): > 2000 µM
IC50 (KP-N-YS): > 2000 µM
IC50 (L-363): 179 µM
IC50 (L-428): > 2000 µM
IC50 (LAMA-84): 435 µM
IC50 (LB2518-MEL): > 2000 µM
IC50 (LNCaP-Clone-FGC): > 2000 µM
IC50 (MFM-223): 1160 µM
IC50 (MLMA): 375 µM
IC50 (MOLT-4): 485 µM
IC50 (MZ2-MEL): > 2000 µM
IC50 (NB10): > 2000 µM
IC50 (NCI-H1092): 1220 µM
IC50 (NCI-H1299): > 2000 µM
IC50 (NCI-H1304): > 2000 µM
IC50 (NCI-H446): > 2000 µM
IC50 (NCI-H510A): > 2000 µM
IC50 (NCI-H747): 1650 µM
IC50 (NCI-H82): 993 µM
IC50 (NOS-1): 524 µM
IC50 (OCI-AML2): 1150 µM
IC50 (ONS-76): > 2000 µM
IC50 (OVCAR-4): 751 µM
IC50 (RCC10RGB): > 2000 µM
IC50 (RKO): 830 µM
IC50 (SK-MEL-1): > 2000 µM
IC50 (SK-N-DZ): 1020 µM
IC50 (SK-NEP-1): 611 µM
IC50 (SK-UT-1): > 2000 µM
IC50 (SW982): > 2000 µM
IC50 (A101D): > 2000 µM
IC50 (A388): > 2000 µM
IC50 (BB49-HNC): > 2000 µM
IC50 (TE-10): 1510 µM
IC50 (TE-5): > 2000 µM
IC50 (TE-6): > 2000 µM
IC50 (TE-9): > 2000 µM
IC50 (TGBC1TKB): 814 µM
IC50 (U-266): > 2000 µM
IC50 (UACC-257): > 2000 µM
IC50 (no-10): > 2000 µM
IC50 (CCRF-CEM): > 2000 µM
IC50 (CGTH-W-1): > 2000 µM
IC50 (COLO-320-HSR): 772 µM
